In patent publication US20240139207A1, “METHODS FOR TREATING PULMONARY HYPERTENSION” (United Therapeutics Corporation, priority 2022, published 2024):

Tests used:
[1] = system: Pulmonary hypertension patients; settings: cited from earlier work
[2] = system: patients with pulmonary arterial hypertension; assay: Phase 4 open-label 16-week study: safety and tolerability, prostanoid-related adverse events; format: in vivo, human
Method: Safety and tolerability were assessed at each scheduled visit and in between visits as needed throughout the duration of the study. Tolerability measures of interest included incidence of all adverse events (AEs) and prostanoid-related AEs including headache, diarrhea, nausea, vomiting, flushing, jaw pain and extremity pain. […] Prostanoid-related events captured by the survey were only recorded if the event was unusual with respect to intensity, frequency, or duration compared to symptoms in the patient's medical history. Patient compliance with taking oral treprostinil was assessed by performing study drug accountability at each scheduled study visit. The primary endpoint and all efficacy endpoints were analyzed using the per-protocol population, which included all patients without major protocol deviations unless otherwise specified. The exact (Clopper-Pearson) 95% confidence interval was calculated for the primary endpoint. […] For continuous variables, descriptive statistics are reported as median (interquartile range, IQR or range) or mean (±standard deviation, SD). For categorical variables, descriptive statistics include frequency and percentage of patients in each category. Changes from baseline to Week 16 for continuous variables were analyzed using Wilcoxon signed rank test. The change in FC from baseline to Week 16 was analyzed using McNemar's test. The p-values from these tests were derived for descriptive purposes and not part of a formal hypothesis testing framework.

[3] = system: patients with pulmonary arterial hypertension; assay: Phase 4 open-label 16-week study: echocardiography parameters; format: in vivo, human
From the text: Based on the 2015 ESC/ERS Guidelines, specific hemodynamic inclusion criteria included a mean pulmonary arterial pressure ≥25 mmHg, pulmonary artery wedge pressure or left ventricular end-diastolic pressure ≤15 mmHg, and pulmonary vascular resistance >3 Wood units, in the absence of unrepaired congenital heart disease. Other key inclusion criteria were World Health Organization functional class (FC) II or III, 6-minute walk distance (6MWD)≥250 m, and a REVEAL 2.0 risk score ≤9 (Benza et al. 2021, DOI: https://doi.org/10.1016/j.chest.2020.08.2069). Patients could be receiving up to two oral PAH background therapies if taken at a stable dose for ≥30 days prior to baseline. As this study focused on the addition of a new therapy rather than the replacement of one therapy by another therapy, participants were eligible regardless of the number of pulmonary arterial hypertension background therapies (0, 1, or 2) they were receiving at baseline. […] Baseline assessments were collected up to 14 days prior to initiation of parenteral treprostinil, and included hemodynamics via echocardiogram and RHC, FC, N-terminal-pro brain natriuretic peptide (NT-proBNP), 6MWD, and medication history. Of note, historical RHC data could be used for baseline assessments if performed up to 180 days prior to initiating parenteral treprostinil. Echocardiograms were uploaded and stored in a central repository and evaluated by an independent central reader in accordance with the American Society of Echocardiography Guidelines (Bossone et al., DOI: 10.1016/j.echo.2012.10.009).
Once patients reached at least 20 ng/kg/min and were deemed suitable for transition based on physician assessment, they were transitioned at Week 2,4, or 8 to oral treprostinil via cross-titration in an inpatient or outpatient setting over 1-21 days. All participants still receiving parenteral treprostinil at Week 8 began transitioning to oral treprostinil regardless of their parenteral treprostinil dose unless deemed unsuitable for transition by their clinician. Before transition, 6MWD, WHO FC, NT-proBNP, and echocardiography parameters were assessed.
The primary endpoint was the percentage of patients who achieved an oral treprostinil TDD of at least 12 mg (0.171 mg/kg for patients <70 kg) at Week 16. Secondary endpoints included change from baseline to Week 16 in risk strata and clinical parameters, where baseline values were collected within 14 days prior to parenteral treprostinil initiation. Changes in risk strata for FC, NT-proBNP, 6MWD, and right atrial (RA) area were assessed using the 2015 ESC/ERS Guidelines, which categorizes risk for each determinant as low, intermediate, and high (Galiè et al., 2016). Clinical parameters of interest included FC, NT-proBNP, 6MWD, echocardiography parameters, REVEAL Lite 2 score (Benza et al., 2021), and Borg Dyspnea Score (Borg, 1982, DOI: https://doi.org/10.1249/00005768-198205000-00012). The REVEAL Lite 2 score includes clinical parameters to determine the risk status (low, intermediate, and high) for pulmonary arterial hypertension. The Borg Dyspnea Score ranges from 0 to 10, where 0 indicates no dyspnea and 10 indicates very, very heavy (almost maximal) dyspnea. Patient-reported outcomes were assessed using the emPHasis-10 quality of life questionnaire (Yorke et al., 2014, DOI: 10.1183/09031936.00127113) and the Pulmonary Arterial Hypertension Symptom Scale (PAHSS) (Matura et al., 2015, DOI: https://doi.org/10.1016/j.apnr.2014.04.001). The Treatment Satisfaction Questionnaire for Medication (TSQM) (Atkinson et al., 2004, DOI: https://doi.org/10.1186/1477-7525-2-12) was used to measure patient satisfaction with their medication over the last two to three weeks; higher scores indicate greater satisfaction. EmPHasis-10 scores can range from 0 to 50, where lower scores indicate better quality of life. […]

[4] = Oral Treprostinil Phase (After Transition), n = 32
[5] = per-protocol population (n=29), while on the labelled form

CCCCC[C@H](O)CC[C@@H]1[C@H]2Cc3cccc(OCC(=O)O)c3C[C@H]2C[C@H]1O [oral treprostinil, treprostinil]
outcomes, including 6-minute walk distances, in patients who attained higher total daily doses [1]: better outcomes
Diarrhea, patients with AE [2, 4]: 17 (53) n (%)
Extremity pain, patients with AE [2, 4]: 11 (34) n (%)
Flushing, patients with AE [2, 4]: 17 (53) n (%)
Headache, patients with AE [2, 4]: 19 (59) n (%)
Jaw pain, patients with AE [2, 4]: 16 (50) n (%)
Nausea, patients with AE [2, 4]: 21 (66) n (%)
Vomiting, patients with AE [2, 4]: 9 (28) n (%)
adverse events headache, nausea, and vomiting ([2]; after transition from Remodulin to Orenitram): tended to improve
use of all concomitant medications ([2]; after transitioning from parenteral to oral treprostinil): decreased
bothersomeness of extremity pain, jaw pain and headache ([2]; after transitioning to oral treprostinil, scale 1 bothers me a lot to 4 not at all bothersome): not at all bothersome
most bothersome AE ([2]; during the phase of the labelled form): diarrhea and nausea
participants who received acetaminophen for prostacyclin-related headache [2, 5]: 38%
participants who received loperamide for prostacyclin-related diarrhea [2, 5]: 38%
participants who received ondansetron for prostacyclin-related nausea/vomiting [2, 5]: 48%
tolerability ([2]; three times daily): well tolerated
Cardiac output, median ([3]; Week 16): 4.9 L/min
Heart rate, median ([3]; Week 16): 76 bpm
LV diameter, median ([3]; Week 16): 44.9 mm
LV eccentricity, diast., median ([3]; Week 16): 1.0
LV eccentricity, syst., median ([3]; Week 16): 1.2
LVOT integral, median ([3]; Week 16): 19.5 cm
LVOT, median ([3]; Week 16): 19.6 mm
PVAT, median ([3]; Week 16): 89.9 ms
RA area, median ([3]; Week 16): 17.5 cm^2
RV MPI, median ([3]; Week 16): 0.4
RV diameter, median ([3]; Week 16): 24.8 mm
RV wall strain, median ([3]; Week 16): −19.2%
RV/LV ratio, diastole, median ([3]; Week 16): 0.6
TAPSE, median ([3]; Week 16): 19.9 mm
Cardiac output, median Change from Baseline ([3]; baseline to Week 16): +0.5 L/min
Heart rate, median Change from Baseline ([3]; baseline to Week 16): +2 bpm
LV diameter, median Change from Baseline ([3]; baseline to Week 16): +3.5 mm
LV eccentricity, diast., median Change from Baseline ([3]; baseline to Week 16): 0.0
LV eccentricity, syst., median Change from Baseline ([3]; baseline to Week 16): +0.1
LVOT integral, median Change from Baseline ([3]; baseline to Week 16): +0.9 cm
LVOT, median Change from Baseline ([3]; baseline to Week 16): +0.4 mm
PVAT, median Change from Baseline ([3]; baseline to Week 16): +4.4 ms
RA area, median Change from Baseline ([3]; baseline to Week 16): −2.9 cm^2
RV MPI, median Change from Baseline ([3]; baseline to Week 16): −0.1
RV diameter, median Change from Baseline ([3]; baseline to Week 16): −2.6 mm
RV wall strain, median Change from Baseline ([3]; baseline to Week 16): +1.3%
RV/LV ratio, diastole, median Change from Baseline ([3]; baseline to Week 16): −0.1
TAPSE, median Change from Baseline ([3]; baseline to Week 16): +1.2 mm
